The target of the first assay is T1, hGPR119 (Homo sapiens, UniProt Q8TDV5).
T1 construct: expressed in transfected cells; host or cells: CHO
T1 sequence (Q8TDV5 1-335): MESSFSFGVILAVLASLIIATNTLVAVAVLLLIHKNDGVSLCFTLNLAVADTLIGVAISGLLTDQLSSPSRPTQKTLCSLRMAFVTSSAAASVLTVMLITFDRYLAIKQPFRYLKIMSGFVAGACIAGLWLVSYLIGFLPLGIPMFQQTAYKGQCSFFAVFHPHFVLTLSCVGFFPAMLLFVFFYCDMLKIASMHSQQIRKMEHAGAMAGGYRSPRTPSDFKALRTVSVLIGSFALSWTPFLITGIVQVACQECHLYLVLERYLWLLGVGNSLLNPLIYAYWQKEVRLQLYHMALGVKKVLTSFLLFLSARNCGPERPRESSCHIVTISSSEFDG
Nature of the assay: In vitro cyclic AMP assay (Cisbio dynamic 2 HTRF kit) in CHO-hGPR119 cells. The assay is classed as cell-based. Particulars: 1 h, cAMP, compound at 1 μM, 60 min, read-out: Induction (% induction at 1 μM). As to the method:
cAMP measurements were done using Cisbio dynamic 2 HTRF kit according to the manufacturer's protocol. Briefly, CHO-hGPR119 cells were plated at a cell density of 5000 cells/well/5 μl into a white small volume 384 well plate. The final concentrations of IBMX and DMSO used were 1 mM and 0.5% respectively. Cells were treated with various concentrations of the test compound for 60 min at room temperature. Cells were lysed by buffer containing Anti-cAMP antibody and d2-cAMP reagents and incubated for 1 hour at room temperature. HTRF was measured at 337 nm excitation and emission wavelengths of 665 nm and 620 nm on a microplate reader (Flurostar, BMG Labtech). Graphpad prism software was utilized for EC50 determinations.
A general note: Time-resolved FRET reads energy transfer from a long-lived donor to a nearby acceptor.
As for `CC(C)c1noc(N2CCC(C(C)Oc3nc4cnc(-c5ccc(S(C)(=O)=O)nc5)nc4s3)CC2)n1` (centres unmarked) [Compound 1162, 2-(1-(1-(3-isopropyl-1,2,4-oxadiazol-5-yl)piperidin-4-yl)ethoxy)-5-(6-(methylsulfonyl)pyridin-3-yl)thiazolo[5,4-d]pyrimidine], the activation at 1 µM is 62%.
With `CC(C)c1noc(N2CCC(C(C)Oc3nc4ccc(-c5ccc(NS(C)(=O)=O)cc5)nc4s3)CC2)n1` (centres unmarked) [Compound 1074, N-(4-(2-(1-(1-(3-isopropyl-1,2,4-oxadiazol-5-yl)piperidin-4-yl)ethoxy)thiazolo[5,4-b]pyridin-5-yl)phenyl)methanesulfonamide], the activation at 1 µM was 39%.
The same measure, in the same setting: the value for `CCc1noc(N2CCC([C@H](C)Oc3nc4ccc(-c5ccc(S(C)(=O)=O)nc5)nc4s3)CC2)n1` [Compound 1160, 2-((S)-1-(1-(3-ethyl-1,2,4-oxadiazol-5-yl)piperidin-4-yl)ethoxy)-5-(6-(methylsulfonyl)pyridin-3-yl)thiazolo[5,4-b]pyridine] was 76%.
For `CC(C)c1noc(N2CCC([C@H](C)Oc3nc4ccc(-c5ccnc(F)c5)nc4s3)CC2)n1` [Compound 1093, (S)-5-(4-(1-((5-(2-fluoropyridin-4-yl)thiazolo[5,4-b]pyridin-2-yl)oxy)ethyl)piperidin-1-yl)-3-isopropyl-1,2,4-oxadiazole], the activation at 1 µM was found to be 82%.
Still for that read-out and setting: the value for `C=C(C)c1cnc(N2CCC(C(C)Oc3nc4ccc(-c5ccc(S(C)(=O)=O)cc5)nc4s3)CC2)nc1` (centres unmarked) [Compound 1118, 5-(4-(methylsulfonyl)phenyl)-2-(1-(1-(5-(prop-1-en-2-yl)pyrimidin-2-yl)piperidin-4-yl)ethoxy)thiazolo[5,4-b]pyridine] was 47%; that for `CC(C)c1noc(N2CCC(C(C)Oc3nc4ccc(-c5ccnc(F)c5)nc4s3)CC2)n1` (centres unmarked) [Compound 1081, 5-(4-(1-((5-(2-fluoropyridin-4-yl)thiazolo[5,4-b]pyridin-2-yl)oxy)ethyl)piperidin-1-yl)-3-isopropyl-1,2,4-oxadiazole] was 82%.
The same measure, in the same setting: as for `Cc1nscc1-c1ccc2nc(OC(C)C3CCN(c4nc(C(C)C)no4)CC3)sc2n1` (centres unmarked) [Compound 1125, 3-isopropyl-5-(4-(1-((5-(3-methylisothiazol-4-yl)thiazolo[5,4-b]pyridin-2-yl)oxy)ethyl)piperidin-1-yl)-1,2,4-oxadiazole], the figure is 38%; as for `CC(C)c1noc(N2CCC(C(C)Oc3nc4ccc(-c5ccc(S(=O)(=O)C6CC6)cc5)nc4s3)CC2)n1` (centres unmarked) [Compound 1063, 5-(4-(1-((5-(4-(cyclopropylsulfonyl)phenyl)thiazolo[5,4-b]pyridin-2-yl)oxy)ethyl)piperidin-1-yl)-3-isopropyl-1,2,4-oxadiazole], 58%; as for `CC(C)c1noc(N2CCC(C(C)Oc3nc4ccc(-c5ccn(C)c(=O)c5)nc4s3)CC2)n1` (centres unmarked) [Compound 1127, 4-(2-(1-(1-(3-isopropyl-1,2,4-oxadiazol-5-yl)piperidin-4-yl)ethoxy)thiazolo[5,4-b]pyridin-5-yl)-1-methylpyridin-2(1H)-one], 50%.
As to `CCc1cnc(N2CCN(c3nc4ccc(-c5ccc(S(C)(=O)=O)cc5)nc4s3)CC2)nc1` [Compound 1008, 2-(4-(5-ethylpyrimidin-2-yl)piperazin-1-yl)-5-(4-(methylsulfonyl)phenyl)thiazolo[5,4-b]pyridine], the activation at 1 µM was determined as 3%.
Take `CC(C)c1noc(C2CCN(c3nc4ccc(Nc5ccc(S(C)(=O)=O)c(F)c5)nc4s3)CC2)n1` [Compound 1025, N-(3-fluoro-4-(methylsulfonyl)phenyl)-2-(4-(3-isopropyl-1,2,4-oxadiazol-5-yl)piperidin-1-yl)thiazolo[5,4-b]pyridin-5-amine]: the activation at 1 µM came to 12%.
Still for that read-out and setting: the value for `CC(Oc1nc2ccc(-c3ccc(S(C)(=O)=O)nc3)nc2s1)C1CCN(c2ncc(C3CC3)cn2)CC1` (centres unmarked) [Compound 1137, 2-(1-(1-(5-cyclopropylpyrimidin-2-yl)piperidin-4-yl)ethoxy)-5-(6-(methylsulfonyl)pyridin-3-yl)thiazolo[5,4-b]pyridine] was 73%; that for `CC(C)c1noc(N2CCC([C@H](C)Oc3nc4ccc(-c5ccc(S(C)(=O)=O)cc5)nc4s3)CC2)n1` [Compound 1031, (S)-3-isopropyl-5-(4-(1-((5-(4-(methylsulfonyl)phenyl)thiazolo[5,4-b]pyridin-2-yl)oxy)ethyl)piperidin-1-yl)-1,2,4-oxadiazole] was 76%; that for `CC(C)c1noc(N2CCC(Oc3nc4ccc(-c5ccc(S(C)(=O)=O)cc5)nc4s3)C(F)C2)n1` (centres unmarked) [Compound 1060, 5-(3-fluoro-4-((5-(4-(methylsulfonyl)phenyl)thiazolo[5,4-b]pyridin-2-yl)oxy)piperidin-1-yl)-3-isopropyl-1,2,4-oxadiazole] was 39%.
Consider `CC(C)c1noc(N2CCC(C(C)Oc3nc4ccc(-c5ccc(-n6cnnn6)cc5)nc4s3)CC2)n1` (centres unmarked) [Compound 1079, 5-(4-(1-((5-(4-(1H-tetrazol-1-yl)phenyl)thiazolo[5,4-b]pyridin-2-yl)oxy)ethyl)piperidin-1-yl)-3-isopropyl-1,2,4-oxadiazole], for which the activation at 1 µM came to 50%.
In the case of `CC(C)c1noc(N2CCC(COc3nc4ccc(-c5ccnc(F)c5)nc4s3)CC2)n1` [Compound 1086, 5-(4-(((5-(2-fluoropyridin-4-yl)thiazolo[5,4-b]pyridin-2-yl)oxy)methyl)piperidin-1-yl)-3-isopropyl-1,2,4-oxadiazole], the activation at 1 µM was determined as 2%.
Regarding `CC(C)c1noc(N2CCC(C(C)Oc3nc4ccc(-c5ccc(S(=O)(=O)C6CC6)nc5)nc4s3)CC2)n1` (stereo in doubt) [Compound 1164, 2-((S)-1-(1-(3-isopropyl-1,2,4-oxadiazol-5-yl)piperidin-4-yl)ethoxy)-5-(6-(cyclopropylsulfonyl)pyridin-3-yl)thiazolo[5,4-b]pyridine], the activation at 1 µM came out at 72%.
Turning to `CS(=O)(=O)c1ccc(-c2ccc3nc(C4=CCN(CCO)CC4)sc3n2)cc1` [Compound 1015, 2-(4-(5-(4-(methylsulfonyl)phenyl)thiazolo[5,4-b]pyridin-2-yl)-5,6-dihydropyridin-1(2H)-yl)ethanol], the activation at 1 µM was 2%.
Take `CC(C)c1noc(N2CCC(C(C)Oc3nc4ccc(-c5ccc(Cl)nc5)nc4s3)CC2)n1` (centres unmarked) [Compound 1142, 2-(1-(1-(3-isopropyl-1,2,4-oxadiazol-5-yl)piperidin-4-yl)ethoxy)-5-(6-chloropyridin-3-yl)thiazolo[5,4-b]pyridine]: the activation at 1 µM was 72%.
Regarding `CCCc1cnc(N2CCC(C(C)Oc3nc4ccc(-c5ccncc5)nc4s3)CC2)nc1` (centres unmarked) [Compound 1150, 2-(1-(1-(5-propylpyrimidin-2-yl)piperidin-4-yl)ethoxy)-5-(pyridin-4-yl)thiazolo[5,4-b]pyridine], the activation at 1 µM was 67%.
For the molecule `CC(Oc1nc2ccc(-c3ccc(S(C)(=O)=O)cc3)nc2s1)C1CCN(c2nc(C3CC3)no2)CC1` (centres unmarked) [Compound 1048, 3-cyclopropyl-5-(4-(1-((5-(4-(methylsulfonyl)phenyl)thiazolo[5,4-b]pyridin-2-yl)oxy)ethyl)piperidin-1-yl)-1,2,4-oxadiazole], the activation at 1 µM turned out to be 57%.
On the same count and under the same terms, as for `CC(C)c1noc(N2CCC([C@H](C)Oc3nc4ccc(-c5cnc(S(C)(=O)=O)nc5)nc4s3)CC2)n1` [Compound 1133, 2-((S)-1-(1-(3-isopropyl-1,2,4-oxadiazol-5-yl)piperidin-4-yl)ethoxy)-5-(2-(methylsulfonyl)pyrimidin-5-yl)thiazolo[5,4-b]pyridine], the figure is 55%; as for `CC(C)c1noc(N2CCC(C(Oc3nc4ccc(-c5ccc(S(C)(=O)=O)cc5)nc4s3)C(F)(F)F)CC2)n1` (centres unmarked) [Compound 1094, 3-isopropyl-5-(4-(2,2,2-trifluoro-1-((5-(4-(methysulfonyl)phenyl)thiazolo[5,4-b]pyridin-2-yl)oxy)ethyl)piperidin-1-yl)-1,2,4-oxadiazole], 24%; as for `CC(C)c1noc(C2CCN(c3nc4ccc(-c5ccc(S(C)(=O)=O)cc5)nc4s3)CC2)n1` [Compound 1004, 3-isopropyl-5-(1-(5-(4-(methylsulfonyl)phenyl)thiazolo[5,4-b]pyridin-2-yl)piperidin-4-yl)-1,2,4-oxadiazole], 45%.
`CC(C)c1noc(N2CCC([C@H](C)Oc3nc4ccc(-c5ccncc5)nc4s3)CC2)n1` [Compound 1092, (S)-3-isopropyl-5-(4-(1-((5-(pyridin-4-yl)thiazolo[5,4-b]pyridin-2-yl)oxy)ethyl)piperidin-1-yl)-1,2,4-oxadiazole]: the activation at 1 µM stood at 9%.
Turning to `CC(C)c1noc(N2CCC(C(Oc3nc4ccc(-c5ccc(S(C)(=O)=O)nc5)nc4s3)C(F)(F)F)CC2)n1` (centres unmarked) [Compound 1102, 3-isopropyl-5-(4-(2,2,2-trifluoro-1-((5-(6-(methylsulfonyl)pyridin-3-yl)thiazolo[5,4-b]pyridin-2-yl)oxy)ethyl)piperidin-1-yl)-1,2,4-oxadiazole], the activation at 1 µM is 72%.

Staying with this assay, now noted: cAMP.
On to `CCc1noc(N2CCC([C@H](C)Oc3nc4ccc(-c5ccc(S(C)(=O)=O)nc5)nc4s3)CC2)n1` [Compound 1160, 2-((S)-1-(1-(3-ethyl-1,2,4-oxadiazol-5-yl)piperidin-4-yl)ethoxy)-5-(6-(methylsulfonyl)pyridin-3-yl)thiazolo[5,4-b]pyridine], for which the EC50 (commonly the concentration giving half of the maximal effect) was in the range of 25 to 50 nM.
Same read-out and setting: as for `CC(C)c1noc(N2CCC([C@H](C)Oc3nc4ccc(-c5ccnc(F)c5)nc4s3)CC2)n1` [Compound 1093, (S)-5-(4-(1-((5-(2-fluoropyridin-4-yl)thiazolo[5,4-b]pyridin-2-yl)oxy)ethyl)piperidin-1-yl)-3-isopropyl-1,2,4-oxadiazole], the figure is less than 25 nM; as for `CC(C)c1noc(N2CCC([C@H](C)Oc3nc4ccc(-c5ccc(S(C)(=O)=O)cc5)nc4s3)CC2)n1` [Compound 1031, (S)-3-isopropyl-5-(4-(1-((5-(4-(methylsulfonyl)phenyl)thiazolo[5,4-b]pyridin-2-yl)oxy)ethyl)piperidin-1-yl)-1,2,4-oxadiazole], 50 to 100 nM.

For the origin of these results see patent US10526345B2, “Compounds as GPR119 agonists” (Mankind Pharma Ltd., priority 2016, dated 2020).
